Structures are written as SMILES.

In experiment [1] the test system is Escherichia coli. Briefly: Antibacterial activity against Escherichia coli BAA2452 expressing blaNDM-1 clinical isolates assessed as meropenem MIC incubated for 16 to 18 hrs by broth microdilution method. To be noted: time 16-18 hrs. In kind it is functional. On the technique in general: Dilution methods test growth across graded concentrations, often in twofold steps.

The nature of experiment [2]: Inhibition of recombinant his tagged IMP1 (unknown origin) expressed in Escherichia coli (DE3) cells using FC5 as substrate by microplate reader assay.
The subject of experiment [3] is Escherichia coli. The experiment is described as follows: Antibacterial activity against Escherichia coli BAA2452 expressing blaNDM-1 clinical isolates assessed as fold potentiation incubated for 16 to 18 hrs by broth microdilution method. In kind it is functional. To be noted: time 16-18 hrs.
The test system of experiment [4] is Klebsiella pneumoniae. Briefly: Antibacterial activity against Klebsiella pneumoniae BAA2470 expressing blaNDM-1 clinical isolates assessed as meropenem MIC incubated for 16 to 18 hrs by broth microdilution method. In kind it is functional. To be noted: time 16-18 hrs.
The subject of experiment [5] is Escherichia coli. Briefly: Antibacterial activity against Escherichia coli C1580 expressing blaIMP-1 clinical isolates assessed as fold potentiation incubated for 16 to 18 hrs by broth microdilution method. In kind it is functional. Particulars: time 16-18 hrs.
Experiment [6] concerns Escherichia coli. The experiment is described as follows: Antibacterial activity against Escherichia coli C1541 expressing blaVIM-2 clinical isolates assessed as fold potentiation incubated for 16 to 18 hrs by broth microdilution method. In kind it is functional. To be noted: time 16-18 hrs.
Experiment [7] concerns Klebsiella pneumoniae. Briefly: Antibacterial activity against Klebsiella pneumoniae BAA2470 expressing blaNDM-1 clinical isolates assessed as fold potentiation incubated for 16 to 18 hrs by broth microdilution method. In kind it is functional. To be noted: time 16-18 hrs.
Experiment [8] relates to Enterobacterales. The experiment is described as follows: Antibacterial activity against Carbapenem-Resistant Enterobacterales 19 expressing blaNDM-1 clinical isolates assessed as fold potentiation incubated for 16 to 18 hrs by broth microdilution method. In kind it is functional. Particulars: time 16-18 hrs.
The subject of experiment [9] is Enterobacterales. Briefly: Antibacterial activity against Carbapenem-Resistant Enterobacterales 19 expressing blaNDM-1 clinical isolates assessed as meropenem MIC incubated for 16 to 18 hrs by broth microdilution method. In kind it is functional. To be noted: time 16-18 hrs.
Experiment [10] deals with Escherichia coli. The experiment is described as follows: Antibacterial activity against Escherichia coli C1580 expressing blaIMP-1 clinical isolates assessed as meropenem MIC incubated for 16 to 18 hrs by broth microdilution method. Particulars: time 16-18 hrs. In kind it is functional.
The nature of experiment [11]: Inhibition of recombinant VIM-5 (unknown origin) expressed in Escherichia coli (DE3) cells using FC5 as substrate by microplate reader assay.
Experiment [12] can be described thus: Inhibition of recombinant VIM-1 (unknown origin) expressed in Escherichia coli (DE3) cells using FC5 as substrate by microplate reader assay.
Experiment [13] in a line: Inhibition of recombinant NDM1 (unknown origin) expressed in Escherichia coli (DE3) cells using FC5 as substrate by microplate reader assay.
In experiment [14] the test system is Escherichia coli. The experiment is described as follows: Antibacterial activity against Escherichia coli C1541 expressing blaVIM-2 clinical isolates assessed as meropenem MIC incubated for 16 to 18 hrs by broth microdilution method. In kind it is functional. Particulars: time 16-18 hrs.
Experiment [15] can be described thus: Inhibition of recombinant his tagged VIM-2 (unknown origin) expressed in Escherichia coli (DE3) cells using FC5 as substrate by microplate reader assay.

For orientation: MIC means the lowest concentration that inhibits growth of the organism. As a reminder, the IC50 is the concentration that inhibits the measured activity by half. For `N#Cc1ccc(C(c2cccc(-n3cc(-c4cccc(N)c4)nn3)c2)P(=O)(O)O)cc1` (stereo not given), the MIC with Escherichia coli [1] is 16 µg/mL; in the experiment with Klebsiella pneumoniae [4] it was 64 µg/mL; in the experiment on Enterobacterales [9] it was 8 µg/mL; with Escherichia coli [10], 2 µg/mL; with Escherichia coli [14] it was 2 µg/mL. The IC50 came to 110 nM in experiment [2]; 3 nM in experiment [11]; 270 nM in [12]; 1120 nM in experiment [13]; 52 nM in experiment [15]. Further, the “fold change (FC)” value in the experiment with Escherichia coli [3] was 8; with Escherichia coli [5] it was 16; in the experiment with Escherichia coli [6] it was 8; in the experiment with Klebsiella pneumoniae [7], >2; in the experiment with Enterobacterales [8], 8.
On to `Nc1cccc(-c2cn(-c3cccc(C(c4ccc(-c5ccccc5)cc4)P(=O)(O)O)c3)nn2)c1` (stereo not given), for which the MIC in the experiment on Escherichia coli [1] amounted to 16 µg/mL; in the experiment with Klebsiella pneumoniae [4], 64 µg/mL; in the experiment with Enterobacterales [9], 8 µg/mL; with Escherichia coli [10] it was 2 µg/mL; in the experiment on Escherichia coli [14], 2 µg/mL. Besides, the half-inhibitory concentration (IC50) worked out at 150 nM in experiment [2]; 2 nM in experiment [11]; 350 nM in [12]; 180 nM in experiment [13]; 0.43 nM in experiment [15]. Moreover, the “fold change (FC)” value in the experiment on Escherichia coli [3] is 8; in the experiment on Escherichia coli [5], 16; with Escherichia coli [6] it was 8; in the experiment with Klebsiella pneumoniae [7] it was >2; with Enterobacterales [8], 8.
On to `Nc1cccc(-c2cn(-c3cccc(C(c4ccc(Cl)cc4)P(=O)(O)O)c3)nn2)c1` (stereo not given), for which the minimum inhibitory concentration (MIC) in the experiment on Escherichia coli [1] turned out to be 16 µg/mL; with Klebsiella pneumoniae [4], 64 µg/mL; in the experiment on Enterobacterales [9], 8 µg/mL; in the experiment with Escherichia coli [10] it was 2 µg/mL; in the experiment on Escherichia coli [14] it was 1 µg/mL. For the same molecule, the IC50 was 540 nM in [2]; 0.43 nM in experiment [11]; 340 nM in experiment [12]; 670 nM in [13]; 1 nM in experiment [15]. In addition, the “fold change (FC)” value with Escherichia coli [3] is recorded as 8; in the experiment with Escherichia coli [5], 16; in the experiment on Escherichia coli [6], 16; with Klebsiella pneumoniae [7] it was >2; in the experiment with Enterobacterales [8], 8.
As for `Nc1cccc(-c2cn(-c3cccc(C(c4cccc5ccccc45)P(=O)(O)O)c3)nn2)c1` (stereo not given), the MIC in the experiment on Escherichia coli [1] came to 16 µg/mL; in the experiment with Klebsiella pneumoniae [4] it was 64 µg/mL; with Enterobacterales [9], 4 µg/mL; in the experiment on Escherichia coli [10], 0.5 µg/mL; in the experiment with Escherichia coli [14] it was 1 µg/mL. Besides, the half-inhibitory concentration (IC50) is 37 nM in experiment [2]; 0.29 nM in [11]; 130 nM in experiment [12]; 920 nM in [13]; 6 nM in experiment [15]. For the same molecule, the “fold change (FC)” value is 8 with Escherichia coli [3]; 64 in the experiment with Escherichia coli [5]; 16 in the experiment with Escherichia coli [6]; >2 in the experiment on Klebsiella pneumoniae [7]; 16 in the experiment on Enterobacterales [8].
Consider `COc1ccc(C(c2cccc(-n3cc(-c4cccc(N)c4)nn3)c2)P(=O)(O)O)cc1` (stereo not given), for which the MIC stood at 16 µg/mL in the experiment with Escherichia coli [1]; 64 µg/mL in the experiment with Klebsiella pneumoniae [4]; 8 µg/mL in the experiment on Enterobacterales [9]; 1 µg/mL in the experiment on Escherichia coli [10]; 2 µg/mL in the experiment with Escherichia coli [14]. For the same molecule, the concentration for half-maximal inhibition (IC50) in experiment [2] is 3250 nM; in experiment [11], 25 nM; in [12], 1240 nM; in [13], 8090 nM; in experiment [15] it was 52 nM. The “fold change (FC)” value with Escherichia coli [3] is on record as 8; in the experiment with Escherichia coli [5], 32; in the experiment with Escherichia coli [6] it was 8; in the experiment on Klebsiella pneumoniae [7] it was >2; in the experiment with Enterobacterales [8], 8.
Regarding `Nc1ccccc1-c1cn(-c2cccc(CP(=O)(O)O)c2)nn1`, the MIC was determined as 32 µg/mL in the experiment on Escherichia coli [1]; 128 µg/mL in the experiment on Klebsiella pneumoniae [4]; 8 µg/mL in the experiment with Enterobacterales [9]; 2 µg/mL with Escherichia coli [10]; 1 µg/mL in the experiment on Escherichia coli [14]. In addition, the 50% inhibitory concentration (IC50) in [2] turned out to be 6500 nM; in experiment [11], 510 nM; in experiment [12], 5610 nM; in [13], 7710 nM; in [15], 13 nM. The “fold change (FC)” value with Escherichia coli [3] is 4; with Escherichia coli [5], 16; in the experiment on Escherichia coli [6] it was 16; with Klebsiella pneumoniae [7], >1; in the experiment on Enterobacterales [8] it was 8.

Source of the values: ChEMBL document CHEMBL5620345, “Metal binding pharmacophore click-derived discovery of new broad-spectrum metallo-β-lactamase inhibitors” (Eur J Med Chem, 2023).
